Data: patent US11945782B2, “Composition and methods of use of tetrahydroisoquinoline small molecules to bind and modulate PCSK9 protein activity” (SRX CARDIO, LLC, priority 2015, dated 2024)

Experiments:
recombinant PCSK9 [1] = target: T1, recombinant PCSK9 (Homo sapiens, UniProt Q8NBP7); experiment: LDLR FACS (flow) Assay in HuH7 cells with recombinant PCSK9; format: cell-based; conditions: 5.0 ug/mL PCSK9, read-out: LDLR Flow Assay: % Inhibition of 5.0 ug/mL recombinant PCSK9 @ X compound dose; for inhibition at 5 µM: Huh-7, 5 uM compound
Description: (§1) The cells were incubated in a 96-well plate for a total of 16 h in the absence or presence of recombinant PCSK9 (final concentration 2.5 ug/ml) protein alone or recombinant PCSK9 protein pre-mixed with indicated concentration of experimental compounds (Cmpd #). After 16 h, DiI-LDL (final concentration 5 ug/ml) was added to the incubation mixtures. After 4 h, cells are stained with Hoechst 33342 for 30 minutes, then rinsed with phosphate buffered saline, and then a final volume of 100 ul phosphate buffered saline was added to each well. The fluorescence was measured (DiI: excitation at 550 nm and emission at 590 nm; Hoechst: excitation at 355 nm, emission at 460 nm). […] The cells were incubated in 24-well plates for a total of 6 h in the absence or presence of recombinant PCSK9 protein (final concentration of 5.0 ug/ml), or in the presence of PCSK9 protein mixed with indicated concentration of experimental compound (Cmpd #). After 6 hours, the cells were released from the plate, stained with anti-LDLR antibody, then rinsed, counterstained with DAN, and then measured by fluorescence activated cell sorting (FACS). The percent recombinant PCSK9 inhibition was calculated as [‘Compound Dose LDLR Fluorescence’-‘5.0 ug/ml PCSK9-treated LDLR Fluorescence’]/[‘PCSK9 Basal LDLR Fluorescence’-‘5.0 ug/ml PCSK9-treated LDLR Fluorescence’]×100%.
LDLR levels can be measured using flow cytometry or fluorescence activated cell sorting (FACS) using protocols adapted from Benjannet et al., “Effects of the prosegment and pH on the activity of PCSK9: evidence for additional processing events” J Biol Chem. 285(52): 40965-40978 (2010) and “Composition and Methods of Use of Small Molecules as Binding Ligands for the Modulation of Proprotein Convertase Subtilisin/Kexin Type 9 (PCSK9) Protein Activity” (WO2016029037), which are incorporated by reference in their entirety.
Cells, such as HepG2, HuH7, FL83B, or a cell line transfected with a short-hairpin PCSK9 knockdown sequence such as HepG2/shPCSK9, HuH7/shPCSK9, or FL,83B/shPCSK9 are plated and cultured at 37° C. for 12-24 h. Culture media is removed and replaced with fresh culture media or culture media plus a predetermined amount of recombinant PCSK9, for example a 10 nM final concentration of PCSK9. Cell culture media can be composed of DMEM (Invitrogen) with 10% fetal bovine serum (Life Technologies) supplemented with penicillin-streptomycin (Life Technologies). Cells are dosed with small molecule test compounds at doses ranging from 0 nM to 100 uM
Following an incubation period of specified length, such as 6 hours, the media is removed and the cells are rinsed three times with a rinse solution (i.e., Dulbecco's phosphate buffered saline (D-PBS, Life Technologies) supplemented with 0.5% bovine serum albumin (BSA, Sigma) and 1 g/L glucose (Sigma)). The fluid is then removed, and cells are released from the plate using TrypLE Express (Life Technologies) per manufacturer's recommend procedures, such as incubation for 5-10 minutes at 37° C. The TyrpLE-Cell suspension is then transferred to 15 mL conical tubes, volume is increased to 2 mL with D-PBS supplemented with 0.5% BSA and […] glucose, and the tubes are centrifuged at 250× gravity for 10 minutes. Following centrifugation, the supernatant is aspirated and the cell pellet is resuspended in 100 uL D-PBS containing 0.5% BSA and […] glucose, and cells are labeled with anti-LDLR antibody per the manufacturer's recommended procedure. The cells are then pelleted by centrifugation, resuspended in 300 uL PBS and counterstained with 4′,6-Diamidino-2-phenylindole (DAPI, Cayman Chemical) as a cell viability marker, other cell viability markers such as 7-aminoactinomycin D (7AAD, Life Technologies) have also been described in the art.
Cells are analyzed for both cell viability marker (dead cells) and LDLR in live cells using a flow cytometer per the manufacturer's operating manual. […]

recombinant PCSK9 [2] = target: T1, recombinant PCSK9; experiment: DiI-LDL Uptake Assay in HepG2 cells with recombinant PCSK9; format: cell-based; conditions: 2.5 ug/mL PCSK9, read-out: Uptake Assay: % Inhibition of 2.5 ug/mL recombinant PCSK9 @ X compound dose; for inhibition at 1.25 µM: 1.25 uM compound; for inhibition at 10 µM: 10 uM compound; for inhibition at 0.313 µM: 0.313 uM compound
Description: as §1
Cellular DiI-LDL uptake can be measured using protocols adapted from Benjannet et al., “Effects of the prosegment and pH on the activity of PCSK9: evidence for additional processing events” J Biol Chem. 285(52): 40965-40978 (2010) and “Composition and Methods of Use of Small Molecules as Binding Ligands for the Modulation of Proprotein Convertase Subtilisin/Kexin Type 9 (PCSK9) Protein Activity” (WO2016029037), which are incorporated by reference in their entirety.
Cells, such as HepG2, HuH7, FL83B, or a cell line transfected with a short-hairpin PCSK9 knockdown sequence such as HepG2/shPCSK9, HuH7/shPCSK9, or FL83B/shPCSK9 are plated and cultured at 37° C. for 12-24 h. Culture media is removed and replaced with fresh lipoprotein-depleted culture media supplemented with 5 ug/mL of DiI-LDL (Kalen Biomedical) or lipoprotein-depleted culture media supplemented with 5 ug/mL of Dil-LDL plus a predetermined concentration of recombinant PCSK9, for example a 10 nM final concentration of PCSK9. Lipoprotein-depleted culture media can be composed of DMEM (Invitrogen) with 10% lipoprotein-depleted fetal bovine serum (Kalen Biomedical) and supplemented with penicillin-streptomycin (Life Technologies). Cells are dosed with small molecule test compounds at doses ranging from 0 nM to 100 uM.
Following an incubation period of specified length, such as 6 hours, Hoechst 33342 (AnaSpec) stain is added to the cell media per manufacturer's instructions and incubated for a specified length (e.g., 30 minutes). The lipoprotein-depleted media is removed and cells rinsed three times with phosphate buffered saline. A final volume of phosphate buffered saline is added back to the wells. The DiI fluorescence is measured with a plate reader using an exciting wavelength of 550 nm and the resulting emission at 590 nm is measured. The Hoechst stain fluorescence is measured with a plate reader using an exciting wavelength of 355 nm and the resulting emission at 460 nm is measured.
Cells are analyzed by for both Hoechst stain (DNA content) and DiI-LDL fluorescence. Cells incubated with small molecule compounds that are inhibitors of PCSK9 will be expected to show increased amounts of DiI-LDL fluorescence, relative to control (no compound) specimens, and cells incubated with small molecule compounds that are activators of PCSK9 will be expected to show decreased amounts of DiI-LDL fluorescence relative to control (no compound) specimens.

T1 sequence (Q8NBP7 153-692): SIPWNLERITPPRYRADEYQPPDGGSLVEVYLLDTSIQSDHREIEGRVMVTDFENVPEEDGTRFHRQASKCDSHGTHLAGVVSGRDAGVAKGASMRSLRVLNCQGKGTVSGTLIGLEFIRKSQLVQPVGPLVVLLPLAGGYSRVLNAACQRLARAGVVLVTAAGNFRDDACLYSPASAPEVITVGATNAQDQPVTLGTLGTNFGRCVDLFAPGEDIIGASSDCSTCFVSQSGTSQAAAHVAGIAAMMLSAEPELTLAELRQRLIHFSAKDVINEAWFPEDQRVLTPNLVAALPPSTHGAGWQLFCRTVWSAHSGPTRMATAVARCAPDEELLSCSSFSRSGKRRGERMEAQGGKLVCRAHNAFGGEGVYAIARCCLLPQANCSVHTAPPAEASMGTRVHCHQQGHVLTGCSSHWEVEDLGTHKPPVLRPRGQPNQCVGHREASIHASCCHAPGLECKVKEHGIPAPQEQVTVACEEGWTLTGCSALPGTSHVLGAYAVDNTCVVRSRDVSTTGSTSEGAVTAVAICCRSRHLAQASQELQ

Work on `Cc1cc2c(cc1-c1ccccc1F)C(=O)NCC2` [Compound 5, 7-(2-fluorophenyl)-6-methyl-3,4-dihydroisoquinolin-1(2H)-one] yielded an inhibition at 10 µM (recombinant PCSK9 [1]; Huh-7, 10 uM compound) of ~10% and an inhibition at 1.25 µM (recombinant PCSK9 [2]) of ~33%.

`Cc1cc(-c2ccccc2F)cc2c1CCNC2=O` [Compound 4, 7-(2-fluorophenyl)-5-methyl-3,4-dihydroisoquinolin-1(2H)-one] was tested, and the inhibition at 5 µM (recombinant PCSK9 [1]) was ~10% and the inhibition at 20 µM (recombinant PCSK9 [2]; 20 µM compound) was ~18%.

For `Cc1cc(-c2ccccc2F)cc2c1CCNC2` [Compound 3, 7-(2-fluorophenyl)-5-methyl-1,2,3,4-tetrahydroisoquinoline], the inhibition at 1.25 µM (recombinant PCSK9 [2]) was ~42% and the inhibition at 10 µM (recombinant PCSK9 [2]) was > 100%.

`c1ccc(-c2ccc3c(c2)CNCC3)cc1` [Compound 1, 7-phenyl-1,2,3,4-tetrahydroisoquinoline] was tested, and the inhibition at 0.625 µM (recombinant PCSK9 [1]; Huh-7, 0.625 uM compound) was ~10%, the inhibition at 1.25 µM (recombinant PCSK9 [1]; Huh-7, 1.25 uM compound) was ~15% and the inhibition at 20 µM (recombinant PCSK9 [1]; Huh-7, 20 uM compound) was ~20%. For the same molecule, the inhibition at 0.313 µM (recombinant PCSK9 [2]) was ~45% and the inhibition at 10 µM (recombinant PCSK9 [2]) was > 100%.

For `Cc1cc2c(cc1-c1ccccc1F)CNCC2` [Compound 2, 7-(2-fluorophenyl)-6-methyl-1,2,3,4-tetrahydroisoquinoline], the inhibition at 5 µM (recombinant PCSK9 [1]) was ~19%, the inhibition at 0.313 µM (recombinant PCSK9 [2]) was ~50% and the inhibition at 10 µM (recombinant PCSK9 [2]) was > 100%.
